Measured values as given in patent publication US12403122B2, “Method for treating amyotrophic lateral sclerosis using quercetin-containing compositions” (Quercis Pharma AG, priority 2021, dated 2025).
“Also recorded” adds a separate entry of the source.

What was measured:
[1] = test system: SOD1G93A mutant rat model of ALS; assay: Immunohistochemical staining of spinal cords after post-paralysis isoquercetin treatment (Example 1); format: in vivo; conditions: SOD1G93A rats, versus vehicle
Method: Materials and Methods: Animals: Male SOD1G93A progeny were used for further breeding to maintain the line. Rats were housed in a centralized animal facility with a 12-h light-dark cycle with ad libitum access to food and water. Perfusion with fixatives was performed under 90% ketamine-10% xylazine anesthesia and all efforts were made to minimize animal suffering, discomfort, or stress. All procedures using laboratory animals were performed in accordance with the national and international guidelines and were approved by the Institutional Animal Committee for animal experimentation. Male hemizygous NTac:SD-TgN (SOD1-G93A)L26H rats (Taconic), originally developed by Howland et al. (2002), were bred locally by crossing with wild-type nontransgenic Sprague-Dawley female rats.
Treatment with Isoquercetin: All rats were weighed and evaluated for motor activity daily.
Fixed spinal cords were removed, postfixed by immersion for 24 h, and then transverse sectioned ([…]) in a Leica cryostat. Serial sections were collected in 100 mM PBS for immunohistochemistry.

rat model of ALS = conditions: downregulation of aberrant glial cells and reactive microglia; cited from earlier work

Compound	number of ventral horn motor neurons expressing misfolded SOD1 and Ubiquitin ([1]; 15 days after paralysis onset)	microgliosis: number of Iba1+ cells in the ventral horn of the lumbar spinal cord ([1]; oral 30 mg/kg/day for 15 days starting after paralysis onset, 30 mg/kg/day)	number of hypertrophic (reactive, GFAP-positive) astrocytes surrounding motor neurons in the lumbar spinal cord ([1]; oral 30 mg/kg/day for 15 days starting after paralysis onset, given together with vitamin C and niacin, 30 mg/kg/day)	paralysis progression (rat model of ALS)
O=c1c(O[C@@H]2O[C@H](CO)[C@@H](O)[C@H](O)[C@H]2O)c(-c2ccc(O)c(O)c2)oc2cc(O)cc(O)c12 [isoquercetin, quercetin-3-O-β-d-glucopyranoside]	apparently reduced; also recorded: significant reduction	significantly reduced; also recorded: Significant reduction	significantly reduced; also recorded: significant reduction	
Cc1ccc(NC(=O)c2ccc(CN3CCN(C)CC3)cc2)cc1Nc1nc(-c2cccnc2)cs1 [masitinib]				slowed paralysis progression
